Source: patent US6592899B2, “PLA/PLGA oligomers combined with block copolymers for enhancing solubility of a drug in water” (Macromed Incorporated, priority 2001, dated 2003)
Converted amounts (≈) assume the structure as drawn.

What was measured:
[1] = cited from earlier work
[2] = Amphotericin B solubility in triblock copolymer solution with or without PLA oligomers (dialysis preparation); format: physicochemical
Description: The mixture was added to dialysis tubing with a 3500 Dalton molecular weight cutoff and dialyzed against reverse osmosis deionized water (pH=2) overnight. The dialysate was then exchanged for reverse osmosis deionized water and dialyzed overnight. The reported solubility of amphotericin B in water is 3 μg/mL. […] The maximum concentration of amphotericin B in the mixture of PLA oligomers and the triblock copolymer was improved greater then 10 fold than that in the triblock copolymer alone.

[3] = Solution stability of paclitaxel in Me-PEG-PLGA diblock copolymer with or without PLA oligomer; format: physicochemical; details: 40 mg paclitaxel, 2 mL water
Description: The PLA oligomers prepared in Example 4 (75 mg) were added to 600 mg of Me-PEG-PLGA diblock copolymer prepared in Example 9, 40 mg of paclitaxel, and 2 mL of reverse osmosis deionized water. […] The solution was then filtered through a 0.2 μm filter. […] Precipitate began to appear within 1 day from the Me-PEG-PLGA diblock copolymer system alone, while the solution containing the PLA oligomer maintained paclitaxel in solution and remained clear for more than 2 days.

[4] = Solution stability of paclitaxel in PLGA-PEG-PLGA triblock copolymer with or without PLA oligomer; format: physicochemical; details: 40 mg paclitaxel, 2 ml water, 0.2 μm filtered
Source text: The solution stability enhancing properties of PLA oligomers are illustrated in this example. […] The solution was then filtered through a 0.2 μm filter. […] A precipitate appeared within 1 day with the PLGA-PEG-PLGA triblock copolymer system alone, while the solution containing the PLA oligomer maintained paclitaxel in solution and remained clear for more than 3 days.

C[C@@H]1[C@H](O)[C@@H](C)/C=C/C=C/C=C/C=C/C=C/C=C/C=C/[C@H](O[C@@H]2O[C@H](C)[C@@H](O)[C@H](N)[C@@H]2O)C[C@@H]2O[C@](O)(C[C@@H](O)C[C@@H](O)[C@H](O)CC[C@@H](O)C[C@@H](O)CC(=O)O[C@H]1C)C[C@H](O)[C@H]2C(=O)O [amphotericin B]
reported solubility in water [1]: 3 µg/mL
improvement of maximum concentration over the triblock copolymer alone ([2]; mixture of PLA oligomers and the triblock copolymer): > 10 fold
solubility ([2]; triblock copolymer solution of Example 1 (entry 1), without PLA oligomers): 150 µg/mL (≈ 162 µM)

CC(=O)O[C@H]1C(=O)[C@@]2(C)[C@H]([C@H](OC(=O)c3ccccc3)[C@]3(O)C[C@H](OC(=O)[C@H](O)[C@@H](NC(=O)c4ccccc4)c4ccccc4)C(C)=C1C3(C)C)[C@]1(OC(C)=O)CO[C@@H]1C[C@@H]2O [paclitaxel]
time paclitaxel maintained in solution and remained clear ([3]; Me-PEG-PLGA diblock copolymer (600 mg) with PLA oligomer (75 mg)): more than 2 days
time until precipitate began to appear ([3]; Me-PEG-PLGA diblock copolymer system alone (600 mg)): ≤ 1 days
time paclitaxel maintained in solution and remained clear ([4]; PLGA-PEG-PLGA triblock copolymer (600 mg) with PLA oligomer (75 mg)): more than 3 days
time until a precipitate appeared ([4]; PLGA-PEG-PLGA triblock copolymer system alone (600 mg)): ≤ 1 days
